Patent publication US11478474B2, “2-(3′-(hydroxymethyl)-1-methyl-5-((5-(2-methyl-4-(oxetan-3-yl)piperazin-1-yl)pyridin-2-yl)amino)-6-oxo-1,6-dihydro-[3,4′-bipyridin]-2′-yl)-7,7-dimethyl-7,8-dihydro-2H-cyclopenta[4,5]pyrrolo[1,2-a]pyrazin-1(6H)-one as a BTK inhibitor” (HUTCHISON MEDIPHARMA LIMITED, priority 2020, dated 2022)

Target: phosphorylated BTK in Ramos cells (Homo sapiens (Human), UniProt Q06187)
Experiment: Determination of phosphorylated BTK in Ramos cells (BTK phospho-Y223 HTRF)
Assay type: cell-based
Conditions: anti-human IgM + hydrogen peroxide stimulation
In short: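 Ramos cells starved 2 h in 1% FBS, then treated 1 h with compound (0.00018–3.0 μM, 0.3% DMSO). They were then stimulated 10 min at 37° C. with anti-human IgM (10 μg/mL) plus H2O2 (3.3 mM). Lysates read by BTK phospho-Y223 HTRF (665/615 nm ratio); IC50 fitted from inhibition normalized to stimulated and unstimulated controls.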

phosphorylated BTK in Ramos cells, sequence (Q06187 whole entry): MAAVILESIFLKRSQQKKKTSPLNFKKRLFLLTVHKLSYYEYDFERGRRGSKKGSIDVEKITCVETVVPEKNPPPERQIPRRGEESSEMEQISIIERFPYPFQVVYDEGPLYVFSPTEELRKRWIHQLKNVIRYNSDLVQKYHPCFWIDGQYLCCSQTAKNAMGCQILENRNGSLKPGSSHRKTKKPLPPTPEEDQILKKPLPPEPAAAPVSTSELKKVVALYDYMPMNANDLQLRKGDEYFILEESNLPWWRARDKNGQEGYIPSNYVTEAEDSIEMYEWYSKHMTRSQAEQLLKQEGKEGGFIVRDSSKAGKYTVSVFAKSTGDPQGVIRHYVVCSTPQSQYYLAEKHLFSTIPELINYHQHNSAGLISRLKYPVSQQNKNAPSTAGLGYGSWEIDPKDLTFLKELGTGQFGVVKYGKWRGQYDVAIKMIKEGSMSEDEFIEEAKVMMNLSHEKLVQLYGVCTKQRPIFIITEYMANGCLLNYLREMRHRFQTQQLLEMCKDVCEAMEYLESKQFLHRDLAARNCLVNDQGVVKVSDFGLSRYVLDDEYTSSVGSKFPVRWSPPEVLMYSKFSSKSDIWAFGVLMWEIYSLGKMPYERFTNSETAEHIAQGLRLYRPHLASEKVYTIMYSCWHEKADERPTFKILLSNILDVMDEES

Going from `CC1CCc2cc3c(=O)n(-c4nccc(-c5cc(Nc6ccc(N7CCN(C8COC8)C[C@@H]7C)cn6)c(=O)n(C)c5)c4CO)ccn3c2C1` (mixture of isomers) [Compound 78] to `C[C@H]1CN(C2COC2)CCN1c1ccc(Nc2cc(-c3ccnc(-n4ccn5c6c(cc5c4=O)CCC6)c3CO)cn(C)c2=O)nc1` [Compound 64], the IC50 rises from 3 nM to 10 nM (3.3-fold). The first is the more potent here.

Going from `C[C@@H]1CN(c2ccc(Nc3cc(-c4ccnc(-n5ccn6c7c(cc6c5=O)CCC7)c4CO)cn(C)c3=O)nc2)[C@@H](C)CN1C1COC1` [Compound 2, 2-(5-((5-((2S,5R)-2,5-dimethyl-4-(oxetan-3-yl)piperazin-1-yl)pyridin-2-yl)amino)-3′-(hydroxymethyl)-1-methyl-6-oxo-1,6-dihydro-[3,4′-bispyridin]-2′-yl)-7,8-dihydro-2H-cyclopenta[4,5]pyrrolo[1,2-a]pyrazin-1(6H)-one] to `C[C@@H]1CN(c2ccc(Nc3cc(-c4ccnc(-n5ccn6c7c(cc6c5=O)CC(C)(C)C7)c4CO)cn(C)c3=O)nc2)[C@@H](C)CN1C1COC1` [Compound 27], the IC50 falls from 10 nM to 1 nM (10-fold). The second is the more potent here.

Compared with `COCCN1CCN(c2ccc(Nc3cc(-c4ccnc(-n5ccn6c7c(cc6c5=O)CC(C)(C)C7)c4CO)cn(C)c3=O)nc2)[C@@H](C)C1` [Compound 8], `C[C@H]1CN(C)CCN1c1ccc(Nc2cc(-c3ccnc(-n4ccn5c6c(cc5c4=O)CC(C)(C)C6)c3CO)cn(C)c2=O)nc1` [Compound 26] is 3.5-fold higher in IC50: 2 nM for the first, 7 nM for the second. The first is the more potent here.

`Cn1cc(-c2ccnc(-n3ccn4c5c(cc4c3=O)CC(C)(C)C5)c2CO)cc(Nc2ccc(N3CCN(C4COC4)CC3)cn2)c1=O` [Compound 9] and `C[C@H]1CN(C2COC2)CCN1c1ccc(Nc2cc(-c3ccnc(-n4ccn5c6c(cc5c4=O)CC(C)(C)C6)c3CO)cn(C)c2=O)nc1` [Compound 19] are the same in IC50: 4 nM for the first, 4 nM for the second.

Going from `C[C@H]1CN(C2COC2)CCN1c1ccc(Nc2cc(-c3ccnc(-n4ccn5c6c(cc5c4=O)CC(C)(C)C6)c3CO)cn3ncnc23)nc1` [Compound 21] to `C[C@H]1CN(C2COC2)CCN1c1ccc(Nc2cc(-c3ccnc(-n4ccn5c6c(cc5c4=O)CC(C)(C)C6)c3CO)cn3c(F)cnc23)nc1` [Compound 23], the IC50 rises from 15 nM to 30 nM (2-fold).

Going from `C[C@H]1CN(C2COC2)CCN1c1ccc(Nc2cc(-c3ccnc(-n4ccn5c6c(cc5c4=O)CC(C)(C)C6)c3CO)nn(C)c2=O)nc1` [Compound 22] to `C[C@H]1CN(C2COC2)CCN1c1ccc(Nc2cc(-c3ccnc(-n4ccn5c6c(cc5c4=O)CC(C)(C)C6)c3CO)n[nH]c2=O)nc1` [Compound 49], the IC50 falls from 18 nM to 1 nM (18-fold).

Going from `Cn1cc(Nc2cc(-c3ccnc(-n4ccn5c6c(cc5c4=O)CC(C)(C)C6)c3CO)cn(C)c2=O)nn1` [Compound 28] to `Cn1cc(-c2ccnc(-n3ccn4c5c(cc4c3=O)CC(C)(C)C5)c2CO)cc(Nc2cn(CCF)nn2)c1=O` [Compound 31], the IC50 rises from 2 nM to 6 nM (3-fold). The first is the more potent here.

Compared with `C[C@H]1CN(C2COC2)CCN1c1cnc(Nc2cc(-c3ccnc(-n4ccn5c6c(cc5c4=O)CC(C)(C)C6)c3CO)cn(C)c2=O)cn1` [Compound 43], `C[C@H]1CN(C2COC2)CCN1c1cnc(Nc2cc(-c3ccnc(-n4ccn5c6c(cc5c4=O)CC(C)(C)C6)c3CO)cn(C)c2=O)nc1` [Compound 44] is 9-fold higher in IC50: 2 nM for the first, 18 nM for the second. The first is the more potent here.

Going from `CN1CCN(C(=O)c2ccc(Nc3cc(-c4ccnc(-n5ccn6c7c(cc6c5=O)CC(C)(C)C7)c4CO)cn(C)c3=O)nc2)CC1` [Compound 48] to `COCCN(C)c1ccc(Nc2cc(-c3ccnc(-n4ccn5c6c(cc5c4=O)CC(C)(C)C6)c3CO)cn(C)c2=O)nc1` [Compound 50], the IC50 falls from 6 nM to 2 nM (3-fold).

Compared with `C[C@H]1CN(C2COC2)CCN1c1ccc(Nc2cc(-c3ccnc(-n4ccn5c6c(cc5c4=O)CCC(F)(F)C6)c3CO)cn(C)c2=O)nc1` [Compound 56], `C[C@H]1CN(C2COC2)CCN1c1ccc(Nc2cc(-c3ccnc(-n4ccn5c6c(cc5c4=O)CC(F)(F)CC6)c3CO)cn(C)c2=O)nc1` [Compound 58] is 6-fold lower in IC50: 24 nM for the first, 4 nM for the second. The second is the more potent here.

`C[C@H]1CN(C2COC2)CCN1c1ccc(Nc2cc(-c3ccnc(-n4ccn5c(c(F)c6ccccc65)c4=O)c3CO)cn(C)c2=O)nc1` [Compound 57] and `C[C@H]1CN(C2COC2)CCN1c1ccc(Nc2cc(-c3ccnc(-n4ccn5c(c(F)c6cc(F)ccc65)c4=O)c3CO)cn(C)c2=O)nc1` [Compound 60] are the same in IC50: 3 nM for the first, 3 nM for the second.

Going from `C[C@@H]1CN(c2ccc(Nc3cc(-c4ccnc(-n5ccn6c(c(F)c7ccccc76)c5=O)c4CO)cn(C)c3=O)nc2)[C@@H](C)CN1C1COC1` [Compound 59] to `C[C@H]1CN(C2COC2)CCN1c1ccc(Nc2cc(-c3ccnc(-n4ccn5c(cc6ccccc65)c4=O)c3CO)cn(C)c2=O)nc1` [Compound 74], the IC50 rises from 1 nM to 11 nM (11-fold). The first is the more potent here.

First: C[C@H]1CN(C2COC2)CCN1c1ccc(Nc2cc(-c3ccnc(-n4cnn5c6c(cc5c4=O)CC(C)(C)C6)c3CO)cn(C)c2=O)nc1 [Compound 63]
Second: C[C@H]1CN(C2COC2)CCN1c1ccc(Nc2cc(-c3ccnc(-n4ncn5c6c(cc5c4=O)CC(C)(C)C6)c3CO)cn(C)c2=O)nc1 [Compound 79]
The IC50 of the first is 2.5-fold higher: 5 nM for the first, 2 nM for the second.

`CCn1cc(Nc2cc(-c3ccnc(-n4ccn5c6c(cc5c4=O)CC(C)(C)C6)c3CO)cn3ncnc23)nn1` [Compound 71] and `C[C@H]1CN(C2COC2)CCN1c1ccc(Nc2cc(-c3ccnc(-n4ccn5c(cc6cc(F)ccc65)c4=O)c3CO)cn(C)c2=O)nc1` [Compound 75] are within 1.5-fold of each other in IC50: 6 nM for the first, 7 nM for the second.
